Like-named read-outs stand apart in the source and are kept apart here.
Target: T1, BRM (Homo sapiens, UniProt P51531)
T1 construct: In-Cell Western Screen of BRM Degradation in SW1573 Cells; endogenous in cells; host or cells: SW1573
Assay: In-cell Western screen of BRM degradation in SW1573 cells (Dmax and DC50)
Format: cell-based
Summary of the method: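 BRM levels were read by LI-COR in-cell Western after two-channel (800/680 nm) immunostaining of fixed, Triton-permeabilised SW1573 cells.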

[1] = SW1573, % degraded, when tested at the top concentration of between 0.3 and 10 μM, read-out: BRM Dmax (%)
[2] = target protein degradation, read-out: BRM DC50
[3] = BRM degradation, SW1573 cells, read-out: DC50
[4] = BRM degradation, SW1573 cells, tested at the top concentration of between 0.3 and 10 μM, read-out: Dmax (%) (% degraded)

T1 sequence (P51531 whole entry): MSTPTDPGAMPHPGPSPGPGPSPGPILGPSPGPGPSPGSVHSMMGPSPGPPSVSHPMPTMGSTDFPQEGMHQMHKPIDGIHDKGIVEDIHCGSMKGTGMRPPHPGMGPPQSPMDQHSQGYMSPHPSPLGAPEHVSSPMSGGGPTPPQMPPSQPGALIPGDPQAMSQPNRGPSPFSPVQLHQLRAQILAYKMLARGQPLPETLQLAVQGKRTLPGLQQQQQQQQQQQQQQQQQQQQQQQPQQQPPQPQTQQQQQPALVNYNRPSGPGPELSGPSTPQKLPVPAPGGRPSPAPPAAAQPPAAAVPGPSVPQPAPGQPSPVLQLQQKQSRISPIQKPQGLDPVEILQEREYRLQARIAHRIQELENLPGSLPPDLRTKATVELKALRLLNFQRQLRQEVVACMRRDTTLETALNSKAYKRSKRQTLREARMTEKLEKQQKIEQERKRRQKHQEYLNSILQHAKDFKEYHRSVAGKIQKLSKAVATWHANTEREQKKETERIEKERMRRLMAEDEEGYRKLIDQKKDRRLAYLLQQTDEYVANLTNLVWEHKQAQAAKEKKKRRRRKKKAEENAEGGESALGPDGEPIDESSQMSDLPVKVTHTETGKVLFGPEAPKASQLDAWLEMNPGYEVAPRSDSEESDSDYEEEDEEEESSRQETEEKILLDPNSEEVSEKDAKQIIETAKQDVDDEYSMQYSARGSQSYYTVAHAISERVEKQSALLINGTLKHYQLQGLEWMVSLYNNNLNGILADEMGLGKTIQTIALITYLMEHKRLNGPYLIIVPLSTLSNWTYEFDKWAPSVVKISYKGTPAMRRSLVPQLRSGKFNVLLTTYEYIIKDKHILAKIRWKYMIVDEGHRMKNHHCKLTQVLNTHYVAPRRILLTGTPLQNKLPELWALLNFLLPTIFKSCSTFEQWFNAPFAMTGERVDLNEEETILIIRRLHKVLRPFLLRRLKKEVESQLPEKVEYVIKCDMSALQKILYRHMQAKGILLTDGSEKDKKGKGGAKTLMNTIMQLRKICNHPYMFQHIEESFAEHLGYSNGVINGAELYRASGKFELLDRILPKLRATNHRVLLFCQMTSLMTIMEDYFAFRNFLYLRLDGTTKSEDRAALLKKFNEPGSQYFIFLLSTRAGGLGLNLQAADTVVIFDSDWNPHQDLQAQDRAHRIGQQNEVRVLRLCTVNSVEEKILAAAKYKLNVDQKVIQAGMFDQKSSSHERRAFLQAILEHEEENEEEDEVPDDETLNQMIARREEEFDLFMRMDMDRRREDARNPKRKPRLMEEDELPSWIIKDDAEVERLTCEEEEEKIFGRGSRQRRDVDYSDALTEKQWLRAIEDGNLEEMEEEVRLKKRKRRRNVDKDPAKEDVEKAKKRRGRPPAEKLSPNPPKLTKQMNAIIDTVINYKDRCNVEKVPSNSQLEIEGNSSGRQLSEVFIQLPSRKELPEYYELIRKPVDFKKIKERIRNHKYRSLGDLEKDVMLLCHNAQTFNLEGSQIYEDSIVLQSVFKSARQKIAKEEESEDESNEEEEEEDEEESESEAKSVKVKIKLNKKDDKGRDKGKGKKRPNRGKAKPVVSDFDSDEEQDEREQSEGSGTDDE

Structure (SMILES)	DC50 [2] [nM]	DC50 [3] [nM]	Dmax [4] [%]	other results
CC(C)[C@H](C(=O)N1C[C@H](O)C[C@H]1C(=O)N[C@@H](C)c1ccc(-n2ccccc2=O)cc1)c1cc(OCCN2CCC(O[C@H]3C[C@H](Oc4cc(N5C6CCC5CN(c5cc(-c7ccccc7O)nnc5N)C6)ccn4)C3)CC2)no1 [compound 372, (2S,4R)-1-((2S)-2-(3-(2-(4-((1r,3S)-3-((4-(3-(3-amino-6-(2-hydroxyphenyl)pyridazin-4-yl)-3,8-diazabicyclo[3.2.1]octan-8-yl)pyridin-2-yl)oxy)cyclobutoxy)piperidin-1-yl)ethoxy)isoxazol-5-yl)-3-methylbutanoyl)-4-hydroxy-N-((S)-1-(4-(2-oxopyridin-1(2H)-yl)phenyl)ethyl)pyrrolidine-2-carboxamide]	> 30			Dmax [1]: > 75%
Cc1ncsc1-c1ccc([C@H](C)NC(=O)[C@@H]2C[C@@H](O)CN2C(=O)[C@H](c2cc(OCCn3cc(C(C)n4cc(-c5cc(-c6ccccc6O)nnc5N)cn4)ccc3=O)no2)C(C)C)cc1 (stereo partly drawn) [compound 157, (2S,4R)-1-((2S)-2-(3-(2-(5-(1-(4-(3-amino-6-(2-hydroxyphenyl)pyridazin-4-yl)-1H-pyrazol-1-yl)ethyl)-2-oxopyridin-1(2H)-yl)ethoxy)isoxazol-5-yl)-3-methylbutanoyl)-4-hydroxy-N-((S)-1-(4-(4-methylthiazol-5-yl)phenyl)ethyl)pyrrolidine-2-carboxamide]		10 to 30	> 75	
Cc1ncsc1-c1ccc([C@H](C)NC(=O)[C@@H]2C[C@@H](O)CN2C(=O)[C@H](c2cc(OCC#Cc3ccc(O[C@H]4C[C@H](Oc5cc(N6C7CCC6CN(c6cc(-c8ccccc8O)nnc6N)C7)ccn5)C4)cn3)no2)C(C)C)cn1 [compound 236, (2S,4R)-1-((2S)-2-(3-((3-(5-((1r,3S)-3-((4-(3-(3-amino-6-(2-hydroxyphenyl)pyridazin-4-yl)-3,8-diazabicyclo[3.2.1]octan-8-yl)pyridin-2-yl)oxy)cyclobutoxy)pyridin-2-yl)prop-2-yn-1-yl)oxy)isoxazol-5-yl)-3-methylbutanoyl)-4-hydroxy-N-((S)-1-(6-(4-methylthiazol-5-yl)pyridin-3-yl)ethyl)pyrrolidine-2-carboxamide]		> 30	> 75	
Cc1cnn(C)c1-c1ccc([C@H](C)NC(=O)[C@@H]2C[C@@H](O)CN2C(=O)[C@H](c2cc(OCCN3CCN(CCOc4cc(N5C6CCC5CN(c5cc(-c7ccccc7O)nnc5N)C6)ccn4)CC3)no2)C(C)C)cc1 [compound 193, (2S,4R)-1-((2S)-2-(3-(2-(4-(2-((4-(3-(3-amino-6-(2-hydroxyphenyl)pyridazin-4-yl)-3,8-diazabicyclo[3.2.1]octan-8-yl)pyridin-2-yl)oxy)ethyl)piperazin-1-yl)ethoxy)isoxazol-5-yl)-3-methylbutanoyl)-N-((S)-1-(4-(1,4-dimethyl-1H-pyrazol-5-yl)phenyl)ethyl)-4-hydroxypyrrolidine-2-carboxamide]		> 30	> 75	
Cc1ncsc1-c1ccc(C(CCCP(=O)(O)O)NC(=O)[C@@H]2C[C@@H](O)CN2C(=O)[C@@H](c2cc(OCCN3CCC(O[C@H]4C[C@H](Oc5cc(N6C7CCC6CN(c6cc(-c8ccccc8O)nnc6N)C7)ccn5)C4)CC3)no2)C(C)C)cc1 (stereo partly drawn) [compound 702, (4-((2S,4R)-1-((2R)-2-(3-(2-(4-((1r,3R)-3-((4-(3-(3-amino-6-(2-hydroxyphenyl)pyridazin-4-yl)-3,8-diazabicyclo[3.2.1]octan-8-yl)pyridin-2-yl)oxy)cyclobutoxy)piperidin-1-yl)ethoxy)isoxazol-5-yl)-3-methylbutanoyl)-4-hydroxypyrrolidine-2-carboxamido)-4-(4-(4-methylthiazol-5-yl)phenyl)butyl)phosphonic acid]				DC50 (BRM degradation, SW1573 cells): > 30 nM
Cc1ncsc1-c1ccc([C@H](C)NC(=O)[C@@H]2C[C@@H](O)CN2C(=O)[C@H](c2cc(N3CCN(CCN4CCC(O[C@H]5C[C@H](Oc6cc(N7C8CCC7CN(c7cc(-c9ccccc9O)nnc7N)C8)ccn6)C5)CC4)CC3)no2)C(C)C)cc1 [compound 195, (2S,4R)-1-((2S)-2-(3-(4-(2-(4-((1r,3r)-3-((4-(3-(3-amino-6-(2-hydroxyphenyl)pyridazin-4-yl)-3,8-diazabicyclo[3.2.1]octan-8-yl)pyridin-2-yl)oxy)cyclobutoxy)piperidin-1-yl)ethyl)piperazin-1-yl)isoxazol-5-yl)-3-methylbutanoyl)-4-hydroxy-N-((S)-1-(4-(4-methylthiazol-5-yl)phenyl)ethyl)pyrrolidine-2-carboxamide]		> 30	> 75	
Cc1ncsc1-c1ccc([C@H](C)NC(=O)[C@@H]2C[C@@H](O)CN2C(=O)C(c2cc(OCCN3[C@H](C)C[C@H](O[C@H]4C[C@H](Oc5cc(N6C7CCC6CN(c6cc(-c8ccccc8O)nnc6N)C7)ccn5)C4)C[C@@H]3C)no2)C(C)C)cc1 (mixture of isomers) [compound 635, (2S,4R)-1-(2-(3-(2-((2S,4S,6R)-4-((1r,3R)-3-((4-(3-(3-amino-6-(2-hydroxyphenyl)pyridazin-4-yl)-3,8-diazabicyclo[3.2.1]octan-8-yl)pyridin-2-yl)oxy)cyclobutoxy)-2,6-dimethylpiperidin-1-yl)ethoxy)isoxazol-5-yl)-3-methylbutanoyl)-4-hydroxy-N-((S)-1-(4-(4-methylthiazol-5-yl)phenyl)ethyl)pyrrolidine-2-carboxamide]		< 2.5		Dmax (BRM degradation, SW1573 cells, read-out: Dmax (% degraded)): > 75%
CC(C)[C@H](C(=O)N1C[C@H](O)C[C@H]1C(=O)N[C@@H](C)c1ccc(C(F)(F)F)cc1)c1cc(OCCN2CCC(O[C@H]3C[C@H](Oc4cc(N5C6CCC5CN(c5cc(-c7ccccc7O)nnc5N)C6)ccn4)C3)CC2)no1 [compound 247, (2S,4R)-1-((2S)-2-(3-(2-(4-((1r,3S)-3-((4-(3-(3-amino-6-(2-hydroxyphenyl)pyridazin-4-yl)-3,8-diazabicyclo[3.2.1]octan-8-yl)pyridin-2-yl)oxy)cyclobutoxy)piperidin-1-yl)ethoxy)isoxazol-5-yl)-3-methylbutanoyl)-4-hydroxy-N-((S)-1-(4-(trifluoromethyl)phenyl)ethyl) pyrrolidine-2-carboxamide]		> 30		
Cc1ncsc1-c1ccc([C@H](C)NC(=O)[C@@H]2C[C@@H](O)CN2C(=O)[C@H](c2cc(OCCOCCOc3cc(N4C5CCC4CN(c4cc(-c6ccccc6O)nnc4N)C5)ccn3)no2)C(C)C)cc1 [compound 356, (2S,4R)-1-((2S)-2-(3-(2-(2-((4-(3-(3-amino-6-(2-hydroxyphenyl)pyridazin-4-yl)-3,8-diazabicyclo[3.2.1]octan-8-yl)pyridin-2-yl)oxy)ethoxy)ethoxy)isoxazol-5-yl)-3-methylbutanoyl)-4-hydroxy-N-((S)-1-(4-(4-methylthiazol-5-yl)phenyl)ethyl)pyrrolidine-2-carboxamide]	> 30			
CC(C)[C@@H](C(=O)N1C[C@H](O)C[C@H]1C(=O)N[C@@H](C)c1ccc(-c2nncs2)cc1)c1cc(OCCN2CCC(O[C@H]3C[C@H](Oc4cc(N5C6CCC5CN(c5cc(-c7ccccc7O)nnc5N)C6)ccn4)C3)CC2)no1 [compound 364, (2S,4R)-N-((S)-1-(4-(1,3,4-thiadiazol-2-yl)phenyl)ethyl)-1-((2R)-2-(3-(2-(4-((1r,3R)-3-((4-(3-(3-amino-6-(2-hydroxyphenyl)pyridazin-4-yl)-3,8-diazabicyclo[3.2.1]octan-8-yl)pyridin-2-yl)oxy)cyclobutoxy)piperidin-1-yl)ethoxy)isoxazol-5-yl)-3-methylbutanoyl)-4-hydroxypyrrolidine-2-carboxamide]	> 30			Dmax [1]: > 75%

— patent US12539292B2, “BRM targeting compounds and associated methods of use” (Arvinas Operations, Inc., priority 2018, dated 2026)
